# Reference: a melting point compilation (Tetko et al.; mined from patent text by program, amines drawn as free bases though some values may be those of a salt)
row,melting point [°C],Compound
1,72 to 74,CCOC(=O)C(=O)N1CCC(Cc2ccc(F)cc2)CC1
2,223 to 227,O=C(C#Cc1ccc(C(F)(F)F)cc1Cl)Nc1ccc(OCCn2cnnc2)cc1
3,144 to 147,CCOC(=O)Cn1c2c(c3c(Cl)cc(Cl)cc31)CCN(C(=O)OC(C)(C)C)CC2
4,205 to 208,CC(=O)Nc1cccc(-c2ccc3nc(-c4cccnc4N)n(-c4ccc(CNC(=O)c5ccccc5)cc4)c3n2)c1
5,189 to 191,CNC(=S)Nc1cc(C(=O)OC)c(O)c2ncc(Cc3ccc(F)cc3)cc12
6,148 to 155,COc1ccccc1CN1CCc2cc(O)ccc2C1
7,71 to 72,COc1c(O)c(C=O)cc2c1OCC2
8,158 to 159,NCCNc1ccc2ncc(Br)n2n1
9,> 320,COc1ccc(-n2c(=O)c3c(Cc4ccccc4)n[nH]c3c3cccnc32)cc1
10,195,CCN(CC)c1ccc(-c2cc(-c3ccc(C(=O)O)cc3)ccc2O)cc1C(F)(F)F
11,106 to 108,CC(C)c1sc(-c2nccs2)c2c1C(=O)CC(C)(C)C2
12,262 to 264,CCn1c(NC)nc(=O)c2ccccc21
13,110 to 120,CC1=CC(=O)N(c2cc(-n3c(=O)n(C)c(=O)n(CC(=O)OC(C)C)c3=O)c(Cl)cc2F)C1=O
14,93 to 94,COc1c(-c2cc3c(s2)CCC(C)(C)C3O)ccc2c(=O)c(C(=O)O)cn(C3CC3)c12 (stereo not drawn)
15,113,NC(=O)c1cc(Oc2cccc(CO)c2)ccn1
16,86 to 88,CC(C)CCCC(C)C1CCC2C3CC=C4CC(OCCI)CCC4(C)C3CCC12C (stereo not drawn)
17,152 to 155,C/C(=C(\C#N)C(N)=S)N1CCCN(c2ccc(Br)cc2)CC1
18,148 to 152,COc1ccc(C(=O)c2cccc3[nH]ccc23)cc1
19,72 to 73,CN(CCc1ccc2c(c1)oc(=O)n2C)Cc1ccccc1
20,259 to 262,Nc1cc(-c2ccccn2)c[nH]c1=O
21,179 to 180,CC(=O)c1ccc(S(=O)(=O)Nc2ccc(C(F)(F)F)cn2)cc1
22,204 to 206,COc1cc(C#N)ccc1Cc1c[nH]c2ccc([N+](=O)[O-])cc12
23,136 to 138,CN(Cc1ccccc1)C(=O)c1c(-c2ccncc2)c(-c2ccc(F)cc2)nn1CCO
24,80.9 to 81.6,CCCCCCCC(=O)Nc1ccc([N+](=O)[O-])cc1

row,melting point [°C],Compound
1,135 to 137,O=C1Nc2cccnc2N(C(=O)NCCN2CCCC(CN3CCCCCC3)C2)c2ccccc21 (stereo not drawn)
2,81 to 83,CCOC(=O)c1ccccc1NCCOc1cccc2ccccc12
3,270 to 271,CN(Cc1ccc(NC(=O)C2=Cc3cc(-c4cc5ccccc5s4)ccc3S(=O)(=O)CC2)cc1)C1CCOCC1
4,124 to 126,Clc1cccc(-c2nnnn2-c2cccnc2)c1Cl
5,182 to 184,Cc1c(Nc2c(C#N)cnc3sc(-c4ccc(OCCN(C)C)cc4)cc23)ccc2[nH]ccc12
6,102 to 104,O=C(C1=C(N2CCCC2)CCC1)c1cccnc1Cl
7,> 300,C=CCn1cc2c(C3C(=O)Nc4ccc(C#N)cc43)ncnc2n1 (stereo not drawn)
8,119,O=C(CN1CCN(c2ccccc2)CC1)N1CCC(CNCc2ccco2)(c2cccc(C(F)(F)F)c2)CC1
9,56 to 60,CCOC(=O)CN(C)C(=O)CC1=C(n2nc(-c3c(-c4ccccc4)nn4ccccc34)ccc2=O)CCCC1
10,96 to 98,O=C(Nc1cc(C(F)(F)F)ccc1N1CCCCC1)c1ccncc1
11,123 to 124,CCOC(=O)CCc1cn(-c2ccccc2)nc1OCc1ccccc1
12,172 to 174,CCc1nc(C)ccc1OC1SCC(O)C(O)C1O (stereo not drawn)
13,41 to 42,CC(=O)N(CC(C)Cl)c1c(C)cccc1C (stereo not drawn)
14,120 to 123,CCCNCC(O)c1ccc(S(C)(=O)=O)cc1 (stereo not drawn)
15,124 to 125,Cc1nc(C)c(Cl)c(NCc2nccc(SCCCSCc3ccncc3)c2C)n1
16,114,CCN(CC)Cc1cc(O)ccc1O
17,141 to 142,CNC(=O)CCC(=NOCc1ccc(OCc2nc(-c3ccccc3)oc2C)cc1)c1ccccc1
18,175 to 176,Nc1nc2[nH]c(CCCc3ccc(C(=O)N[C@@H](CCC(=O)O)C(=O)O)s3)cc2c(=O)[nH]1
19,240 to 241,N#CCNC1(c2ccccc2Cl)C(=O)Nc2ccc(Cl)cc21 (stereo not drawn)
20,219 to 221,COc1ccccc1-c1ccc(S(N)(=O)=O)c(N)c1
21,111 to 113,COC(=O)c1ccnc(N2CCN(Cc3ccncc3)C2=O)c1
22,148 to 149,CC1(COc2cc(/C=C/C(=O)O)n(Cc3ccc(C(F)(F)F)cc3Cl)n2)COC1
23,170 to 175,CC[C@H](C)[C@H](NC(=O)O[C@@H](CC(C)C)C(=O)O)C(N)=O
24,82,Oc1ccc(Oc2ccc(Cl)cc2Cl)cc1

row,melting point [°C],Compound
1,196 to 200,CC(=O)Nc1c[nH]c(=S)n1C1CCc2ccccc2C1 (stereo not drawn)
2,113 to 114,Cc1oc(-c2ccco2)nc1COc1ccc(COc2nn(-c3ccccc3)cc2CO)cc1
3,239 to 241,O=C1NC(=O)C2(C=Cc3c(Cl)sc(Cl)c32)N1 (stereo not drawn)
4,231 to 233,O=COCC#Cc1cc(F)c2ncc(C(=O)NCc3ccc(Cl)cc3)c(O)c2c1
5,157 to 158,N#CN=C(Nc1ccc(NCCF)nc1)Oc1ccccc1
6,176 to 178,CCS(=O)(=O)Nc1ccc2[nH]cc(C3CCN(C)CC3)c2c1
7,228 to 231,O=C1Nc2ccccc2C1c1ncnc2c1cnn2C1CCCC1 (stereo not drawn)
8,100 to 102,CCOC(=O)Cc1ccc(NC(=O)C(NS(=O)(=O)c2ccc(Cl)cc2)C(C)C)cc1 (racemic)
9,172,Cc1ccsc1NC(=O)NCC(=O)N(CC(=O)N(C)c1ccccc1)c1ccccc1
10,99,Cc1ccc(C#Cc2ccc3c(c2)C(C)(C)CCC3(C)C)cc1
11,194 to 197,CCC(CC)(COc1ccc2ncnn2n1)CS(N)(=O)=O
12,100,OCC1CN(Cc2ccccc2)C(c2ccccc2)O1 (stereo not drawn)
13,246 to 247,O=C(Nc1nccs1)c1nc(-c2ccc(N3CCCCCC3)cc2)[nH]c1-c1ccc(Cl)cc1
14,> 250,COc1cc(OC)cc(N2CCC(c3c(N)nc(N)[nH]c3=O)CC2)c1
15,73 to 75,CN1C(=O)[C@@H](CN2CCCCC2)C[C@H]1c1ccc(-c2ccccc2Cl)s1
16,112 to 113,CCn1ncc2c(ON=C(C)C)c(C(=O)c3ccc(Cl)cc3)cnc21
17,118 to 119,C=CCOc1nc2cccc(C(=O)OC)c2n1Cc1ccc(-c2ccccc2C#N)cc1
18,178 to 180,CC(=O)c1c(-c2ccc(C(F)(F)F)cc2)[nH]c(-c2ccncc2)c1C
19,187 to 189,CC(C)On1c(C(C)(C)C)nc2c(N)nc3ccccc3c21
20,80.8,Nc1cc(Cl)c(Sc2ccc(C(F)(F)F)cc2Cl)cc1F
21,266,Cc1ccc2c([nH]c3c(C(=O)O)cccc32)c1Cl
22,150 to 152,Nc1cc(C(F)(F)C(F)(F)OC(F)(F)C(F)(F)OC(F)(F)C(F)(F)c2ccc(O)c(N)c2)ccc1O
23,94 to 96,CCCCOC(=O)[C@H]1CN(c2ccc(C3CCSCC3)cc2)C(=O)O1
24,280 to 282,Cc1ccc(NC(=O)N2CCN(C(=O)c3ccc(Nc4ccnc5cc(C(F)(F)F)ccc45)cc3)CC2)cc1

row,melting point [°C],Compound
1,145 to 150,COC(=O)c1ccccc1S(=O)(=O)NC(=O)Nc1nc(C)cc(COC(C)=O)n1
2,69 to 72,CCOC(=O)C(=CNC1CC1)C(=O)c1c(F)cc(F)c(F)c1C
3,237 to 239,Cc1oc(-c2ccccc2)nc1Cc1cc2cc(C=CC=C3OC(=O)NC3=O)ccc2o1
4,68 to 69,C#CCOc1ccc2c(c1)c(-c1ccc(C(C)C)cc1)nc(=O)n2Cc1cccc(N2CCCC2=O)c1
5,105 to 107,COc1ccc(-c2noc(C)n2)c(OC)c1C
6,> 300,O=C1CC2(C(=O)N1)C(=O)N1c3ccccc3Sc3cccc2c31 (stereo not drawn)
7,114,O=C(c1ccc(F)cc1)C1CCN(CCCN2c3ccccc3-c3ccccc3S2(=O)=O)CC1
8,237 to 240,CN(C)C(=O)c1cnn(C)c1C(=O)Nc1ccn2nc(N3CCOCC3)nc2c1
9,141 to 142,COc1ccc(N2CCN(c3c(C)c(C)c4c(c3C)CC(C)O4)CC2)cc1C (stereo not drawn)
10,183 to 185,Cc1c(C=NO)c2cc(F)ccc2n1-c1ccc(OCc2ccccc2)cc1
11,172 to 173,CN(C)C(=O)Cc1ccccc1Nc1ccnc2cc(C(F)(F)F)ccc12
12,52 to 54,O=C(c1ccc(C2CCCCC2)cc1)c1cccnc1
13,147 to 149,CC(/C=C/c1ccccc1)=C\C(=O)NCCCCCC(=O)NO
14,122 to 123,CC[C@@H]1C(=O)N(Cc2ccc(OC)cc2OC)[C@H]1C(=O)O (relative stereo)
15,141,CCOC(=O)Cc1cccc2c(-c3ccccc3)nccc12
16,88 to 90,CCCCCCCCCCCCOC(=O)NCCC(=O)O
17,198 to 200,CS(=O)(=O)Nc1ccc(C(=O)CCC(=O)O)cc1
18,232 to 233,Cc1cc(-c2nc3cc(C(C)(C)C)c(Cl)nn3c2-c2ccnc(N)c2)ccc1F
19,143 to 145,CCC(=O)N(CCc1ccccc1)C1CCc2c(cccc2NC(C)=O)C1 (stereo not drawn)
20,250 to 253,CCc1cc2c(c(Cl)cc(=O)n2Cc2ccc(C(=O)O)cc2)c(CC)n1
21,118 to 120,CCOC(=O)C1=C(COCc2nnc(C)o2)NC(C)=C(C(=O)OC)C1c1cccc(Cl)c1Cl (stereo not drawn)
22,137 to 138,CN1CC(c2ccccc2)c2ccccc2C(c2ccccc2)C1(C)C (stereo not drawn)
23,250,COc1ccc(CN(C)CCCCc2ccc(NC(=O)c3cccc4c(=O)c5cccc(N)c5[nH]c34)cc2)cc1OC

row,Compound,melting point [°C]
1,O=P(O)(O)Cc1ccc(CP(=O)(O)O)cc1,> 300
2,CCN(CC)C(=O)C1CN2CCC1C(NCc1ccccc1OC)C2C(c1ccccc1)c1ccccc1 (stereo not drawn),121 to 123
3,Clc1ccc2c(c1)C(c1ccccc1Cl)=NCCN2C1=NCCS1,123 to 124
